How the values were obtained:
[1] = system: SW480 colon cancer cells; test: Cell viability assay (CellTiter-Blue); format: cell-based; conditions: Homo sapiens, 96 h, four days; for inhibition at 10 µM: given where EC50 >10 μM, read-out: percent inhibition at 10 μM
Method in brief: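 4-day exposure, 37 °C/5% CO2; ~2×10^3 SW480 cells/well; 8-pt 1:3 curve, 10–0.0045 μM, duplicates vs DMSO controls. Resazurin→resorufin fluorescence readout, ~3 h. EC50 by nonlinear fit; if >10 μM, % inhibition at 10 μM reported.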

[2] = system: primary human fibroblasts derived from IPF patients (LL29 cells) treated with TGF-β1; test: Inhibition of fibrotic process, αSMA staining in TGF-β1 treated LL29 fibroblasts; format: cell-based; conditions: Fibroblast; for EC50: 96 h, % αSMA positive LL29 cells, TGF-β1 20 ng/mL, 4 days; for inhibition at 10 µM: given where EC50 >10 μM, αSMA, LL29 cells, TGF-β1, read-out: percent inhibition at 10 μM
Method in brief: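 Read-out: fraction of αSMA-positive cells by high-content imaging, SYTOX-stained dead cells excluded, normalized to TGF-β1/DMSO wells. Cells got compound (10 μM–[…], 11 points) plus TGF-β1 20 ng/mL for 4 days. EC50 from triplicate curves; above 10 μM, % inhibition at 10 μM given.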

SMILES	inhibition at 10 µM [1]	EC50 [1]	EC50 [2]	inhibition at 10 µM [2]
CN(C)Cc1cncc(-c2cc3c(-c4cc5c(-c6ccncc6)ccnc5[nH]4)n[nH]c3cn2)c1 [Compound 125, N,N-Dimethyl-1-(5-(3-(4-(pyridin-4-yl)-1H-pyrrolo[2,3-b]pyridin-2-yl)-1H-pyrazolo[3,4-c]pyridin-5-yl)pyridin-3-yl)methanamine]	3.9%	> 10 µM	5.01 µM	
CC(C)C(=O)Nc1cncc(-c2cc3c(-c4cc5c(-c6ccc(F)cc6)ccnc5[nH]4)n[nH]c3cn2)c1 [Compound 37, N-(5-(3-(4-(4-Fluorophenyl)-1H-pyrrolo[2,3-b]pyridin-2-yl)-1H-pyrazolo [3,4-c]pyridin-5-yl)pyridin-3-yl)isobutyramide]		2.69 µM	0.668 µM	
O=C(Nc1cncc(-c2cc3c(-c4cc5c(-c6cccc(F)c6)ccnc5[nH]4)n[nH]c3cn2)c1)C1CC1 [Compound 20, N-(5-(3-(4-(3-Fluorophenyl)-1H-pyrrolo[2,3-b]pyridin-2-yl)-1H-pyrazolo [3,4-c]pyridin-5-yl)pyridin-3-yl)cyclopropanecarboxamide]		0.159 µM	0.019 µM	
CC(C)Nc1cncc(-c2cc3c(-c4cc5c(-c6cccnc6)ccnc5[nH]4)n[nH]c3cn2)c1 [Compound 96, N-Isopropyl-5-(3-(4-(pyridin-3-yl)-1H-pyrrolo[2,3-b]pyridin-2-yl)-1H-pyrazolo[3,4-c]pyridin-5-yl)pyridin-3-amine]	20.5%	> 10 µM	> 10 µM	0%
O=C(Cc1ccccc1)Nc1cncc(-c2cc3c(-c4cc5c(-c6ccccc6F)ccnc5[nH]4)n[nH]c3cn2)c1 [Compound 66, N-(5-(3-(4-(2-Fluorophenyl)-1H-pyrrolo[2,3-b]pyridin-2-yl)-1H-pyrazolo [3,4-c]pyridin-5-yl)pyridin-3-yl)-2-phenylacetamide]		0.62 µM	0.501 µM	
c1cncc(-c2ccnc3[nH]c(-c4n[nH]c5cnc(-c6cncc(CN7CCCC7)c6)cc45)cc23)c1 [Compound 98, 3-(4-(Pyridin-3-yl)-1H-pyrrolo[2,3-b]pyridin-2-yl)-5-(5-(pyrrolidin-1-ylmethyl)pyridin-3-yl)-1H-pyrazolo[3,4-c]pyridine]	11.5%	> 10 µM	8.15 µM	
CN1CCN(c2ccnc3[nH]c(-c4n[nH]c5cnc(-c6cncc(CNCC7CCCC7)c6)cc45)cc23)CC1 [Compound 249, 1-Cyclopentyl-N-((5-(3-(4-(4-methylpiperazin-1-yl)-1H-pyrrolo[2,3-b]pyridin-2-yl)-1H-pyrazolo[3,4-c]pyridin-5-yl)pyridin-3-yl)methyl)methanamine]		4.29 µM	6.92 µM	
O=C(Nc1cncc(-c2cc3c(-c4cc5cccnc5[nH]4)n[nH]c3cn2)c1)C1CCCCC1 [Compound 275, N-(5-(3-(1H-Pyrrolo[2,3-b]pyridin-2-yl)-1H-pyrazolo[3,4-c]pyridin-5-yl)pyridin-3-yl)cyclohexanecarboxamide]	9.5%	> 10 µM	2.52 µM	
CCCCC(=O)Nc1cncc(-c2cc3c(-c4cc5c(-c6cccnc6)ccnc5[nH]4)n[nH]c3cn2)c1 [Compound 103, N-(5-(3-(4-(Pyridin-3-yl)-1H-pyrrolo[2,3-b]pyridin-2-yl)-1H-pyrazolo[3,4-c]pyridin-5-yl)pyridin-3-yl)pentanamide]	7.4%	> 10 µM	> 10 µM	4.8%
CN1CCN(c2ccnc3[nH]c(-c4n[nH]c5cnc(-c6cncc(N(C)C)c6)cc45)cc23)CC1 [Compound 231, N,N-Dimethyl-5-(3-(4-(4-methylpiperazin-1-yl)-1H-pyrrolo[2,3-b]pyridin-2-yl)-1H-pyrazolo[3,4-c]pyridin-5-yl)pyridin-3-amine]	9.2%	> 10 µM	> 10 µM	41.8%
CCC(=O)Nc1cncc(-c2cc3c(-c4cc5c(-c6cccc(F)c6)ccnc5[nH]4)n[nH]c3cn2)c1 [Compound 1, N-(5-(3-(4-(3-Fluorophenyl)-1H-pyrrolo[2,3-b]pyridin-2-yl)-1H-pyrazolo [3,4-c]pyridin-5-yl)pyridin-3-yl)propionamide]	36.3%	> 10 µM	1.62 µM	
Fc1cccc(-c2ccnc3[nH]c(-c4n[nH]c5cnc(-c6cccnc6)cc45)cc23)c1 [Compound 4, 3-(4-(3-Fluorophenyl)-1H-pyrrolo[2,3-b]pyridin-2-yl)-5-(pyridin-3-yl)-1H-pyrazolo[3,4-c]pyridine]		2.73 µM	1.03 µM	
CN(C)CCOc1cncc(-c2cc3c(-c4cc5c(-c6cccnc6)ccnc5[nH]4)n[nH]c3cn2)c1 [Compound 563, N,N-Dimethyl-2-((5-(3-(4-(pyridin-3-yl)-1H-pyrrolo[2,3-b]pyridin-2-yl)-1H-pyrazolo[3,4-c]pyridin-5-yl)pyridin-3-yl)oxy)ethan-1-amine]	0%	> 10 µM	1.11 µM	
c1ccc(-c2cc3c(-c4cc5c(-c6ccncc6)ccnc5[nH]4)n[nH]c3cn2)nc1 [Compound 140, 5-(Pyridin-2-yl)-3-(4-(pyridin-4-yl)-1H-pyrrolo[2,3-b]pyridin-2-yl)-1H-pyrazolo[3,4-c]pyridine]	17.5%	> 10 µM	> 10 µM	10.5%
O=C(Nc1cncc(-c2cc3c(-c4cc5c(-c6ccncc6)ccnc5[nH]4)n[nH]c3cn2)c1)C1CCC1 [Compound 133, N-(5-(3-(4-(Pyridin-4-yl)-1H-pyrrolo[2,3-b]pyridin-2-yl)-1H-pyrazolo[3,4-c]pyridin-5-yl)pyridin-3-yl)cyclobutanecarboxamide]	3.7%	> 10 µM	2.6 µM	
Fc1cccc(-c2ccnc3[nH]c(-c4n[nH]c5cnc(-c6cncnc6)cc45)cc23)c1 [Compound 27, 3-(4-(3-Fluorophenyl)-1H-pyrrolo[2,3-b]pyridin-2-yl)-5-(pyrimidin-5-yl)-1H-pyrazolo[3,4-c]pyridine]	41.2%	> 10 µM	2.82 µM	
O=C(Nc1cncc(-c2cc3c(-c4cc5cccnc5[nH]4)n[nH]c3cn2)c1)C1CC1 [Compound 272, N-(5-(3-(1H-Pyrrolo[2,3-b]pyridin-2-yl)-1H-pyrazolo[3,4-c]pyridin-5-yl)pyridin-3-yl)cyclopropanecarboxamide]	23.3%	> 10 µM	9.98 µM	
O=C(Nc1cncc(-c2cc3c(-c4cc5cccnc5[nH]4)n[nH]c3cn2)c1)c1ccccc1 [Compound 263, N-(5-(3-(1H-Pyrrolo[2,3-b]pyridin-2-yl)-1H-pyrazolo[3,4-c]pyridin-5-yl)pyridin-3-yl)benzamide]	22.5%	> 10 µM	> 10 µM	55.3%
CCCC(=O)Nc1cncc(-c2cc3c(-c4cc5c(-c6cc(F)cc(NCCN(C)C)c6)ccnc5[nH]4)n[nH]c3cn2)c1 [Compound 465, N-(5-(3-(4-(3-((2-(Dimethylamino)ethyl)amino)-5-fluorophenyl)-1H-pyrrolo [2,3-b]pyridin-2-yl)-1H-pyrazolo[3,4-c]pyridin-5-yl)pyridin-3-yl)butyramide]	10.6%	> 10 µM	> 10 µM	43%
